| SMILES | melting point [°C] |
| --- | --- |
| CCOP(=O)(CCC[N+](C)(C)CCCNS(=O)(=O)c1cccc2c(N(C)C)cccc12)OCC.[Br-] | 34 to 36 |
| CN(C)CCCNS(=O)(=O)c1cccc2c(N(C)C)cccc12 (hydrate or solvate) | 122 to 124 |
